Test results published in US20030059852A1, “Modulation of integrin-mediated signal transduction” (COR Therapeutics, Inc., priority 1995, published 2003).

How the values were obtained:
GP IIIa (β3) = experiment: In vivo tyrosine phosphorylation of GPIIIa, 2-D gel electrophoresis and anti-phosphotyrosine immunoblotting; assay type: cell-based, human
Protocol: Blood from healthy volunteers was collected into ⅙^th volume of 85 mM sodium citrate, 111 mM dextrose and 71 mM citric acid supplemented with 50 ng/ml PGI2 and 0.6 U/ml apyrase. After centrifugation of the blood at 160× g for 20 minutes the platelet rich plasma was removed and subjected to further centrifugation at 730× g for 10 minutes to sediment the platelets. Platelets were then resuspended in 13 mM trisodium citrate, 120 mM NaCl and 30 mM dextrose pH 7.0 and washed x 2 with this buffer. The platelets were then resuspended in 12 mM NaHCO3, 138 mM NaCl, 5.5 mM dextrose, 2.9 mM KCl, 10 mM Hepes, 1 mM CaCl2, 0.3 U/ml apyrase and allowed to recover for 1 hour at 37° C. […]
330 μl of 3× non-reducing sample buffer containing 1 mM sodium vanadate was added to 1 ml of control or thrombin-aggregated platelets. […] This membrane was then immunoblotted with anti-phosphotyrosine antibodies and the relative amount of phosphorylated GPIIIa was determined by densitometry for both control and thrombin-aggregated samples. […]
However, a three to six fold enhancement of phosphorylation of GPIIIa was observed when platelets were lysed in a high concentration of SDS and the proteins immediately separated by 2-D gel electrophoresis prior to transfer to a nitrocellulose membrane, and immunoblotting to detect phosphorylated proteins with phosphotyrosine antibodies and with a GPIIIa antibody to quantitate GPIIIa. […]

platelets = experiment: Platelet aggregation induced by agonists; assay type: cell-based, human
Protocol: Blood from healthy volunteers was collected into ⅙^th volume of 85 mM sodium citrate, 111 mM dextrose and 71 mM citric acid supplemented with 50 ng/ml PGI2 and 0.6 U/ml apyrase. After centrifugation of the blood at 160× g for 20 minutes the platelet rich plasma was removed and subjected to further centrifugation at 730× g for 10 minutes to sediment the platelets. Platelets were then resuspended in 13 mM trisodium citrate, 120 mM NaCl and 30 mM dextrose pH 7.0 and washed x 2 with this buffer. The platelets were then resuspended in 12 mM NaHCO3, 138 mM NaCl, 5.5 mM dextrose, 2.9 mM KCl, 10 mM Hepes, 1 mM CaCl2, 0.3 U/ml apyrase and allowed to recover for 1 hour at 37° C. Resting platelets were activated by the addition of 1 nM thrombin with stirring until aggregates were visible (1-3 minutes).
Additional experiments have been performed using a 2-D gel electrophoresis protocol and have yielded further information on the tyrosine phosphorylation of GPIIIa (FIG. 3). GPIIIa tyrosine phosphorylation can be observed in platelets induced to aggregate using agonists other than thrombin. […] In all cases platelet aggregation appears to be a prerequisite for GPIIIa tyrosine phosphorylation.

**Q.** How did the GPIIIa tyrosine phosphorylation (GP IIIa (β3); 2-D gel electrophoresis protocol) turn out when Nc1ncnc2c1ncn2[C@@H]1O[C@H](COP(=O)(O)OP(=O)(O)O)[C@@H](O)[C@H]1O [ADP] was run?
**A.** Its GPIIIa tyrosine phosphorylation is “no increase”.

**Q.** What about the “β3 Phosphorylation” value (GP IIIa (β3); platelets stimulated with the indicated agonist, 2-D gel, anti-phosphotyrosine immunoblotting) of the same molecule?
**A.** Its value is “no”.

**Q.** And the platelet aggregation (platelets)?
**A.** Its platelet aggregation is “does not induce platelet aggregation”.

**Q.** And the Aggregation (platelets; platelets stimulated with the indicated agonist)?
**A.** Its Aggregation is “no”.
